Test results from publication PMC9071858, “Comparative Pharmacokinetics of Seven Major Compounds in Normal and Atherosclerosis Mice after Oral Administration of Simiao Yong'an Decoction” (Evidence-based Complementary and Alternative Medicine : eCAM, 2022).

How the values were obtained:
[1] = Pharmacokinetic study in atherosclerosis (AS) model ApoE−/− mice after oral administration of SMYAD; assay type: in vivo, mouse; settings: AS mice, plasma, SMYAD intragastric 35 g/kg/d for seven days, mean ± SD, n = 5; for AUC(0-t) / AUC(0-inf) / Cmax / half-life / Tmax: male, ApoE−/− on a C57BL/6 background, mouse, po, 35 g/kg/day; for AUC(0-t): read-out: AUC0–t; for AUC(0-inf): read-out: AUC0–∞; for Cmax: read-out: C max; for half-life: read-out: t 1/2 (converted); for Tmax: read-out: t max
Protocol: (§1) Male C57BL/6J mice and ApoE^−/− mice on a C57BL/6 background (7 weeks old, 18–22 g) were purchased from Beijing Vital River Laboratory Animal Technology Co., Ltd. (Beijing, China, Certificate No.: SCXK (Jing) 2016-0006). All the mice were kept in an SPF animal house (Dongzhimen Hospital Affiliated to Beijing University of Chinese Medicine, Certificate No.: SYXK (Jing) 2015-0001) with food and water freely available, 12 h light/dark, and environmental conditions of 22°C–24°C, 50% relative humidity. All protocols of animal experiments were performed in accordance with the National Guidelines for Laboratory Animal Welfare and were approved by the Animal Ethics Committee of Beijing University of Chinese Medicine (NO. BUCM-4-2015071701-3001). High-fat feeding (containing 15% fat and 0.25% cholesterol) was provided by Beijing HFK bioscience CO., LTD. (Beijing, China, Certificate No.: SCXK (Jing) 2014-0018).
The AS model was established by a high-fat diet and perivascular carotid collar placement (PCCP) surgery in the ApoE^−/− mice. After a 7-day adaptive feeding, the mice were given a high-fat diet for 2 weeks; before anesthesia, all ApoE^−/− mice were fasted for 12 hours. During the surgery, the right common carotid artery was exposed, and a silicone cannula (length: 2.5 mm, inner diameter: 0.3 mm) was fixed around the carotid artery (external diameter: about 0.5 mm). Penicillin was injected intraperitoneally for 3 days after surgery to prevent infection. High-fat diet continued for 8 weeks after surgery to establish AS model. Biochemical assays and hematoxylin and eosin (HE) staining were used to evaluate whether AS model was successfully established.
(§2) After successful induction of AS model, SMYAD was administered to NC and AS mice by intragastric gavage at the crude drug dose of 35 g/kg/d for seven days. Blood samples were collected from each mouse in heparinized tubes via the postorbital venous plexus veins at 0, 0.25, 0.5, 1, 2, 4, 6, 8, 10, 12, 18, and 24 h after seven days of drug administration. Then blood samples were immediately centrifuged at 3500 rpm at 4°C for 10 min and the plasma was stored at −80°C until use.
(§3) Each plasma sample (100 μL) was mixed with a threefold volume of methanol and 25 μL IS in a 1.5 mL EP tube. Then the mixture was vortexed for 100 seconds and centrifuged at 12,000 rpm for 10 min at 4°C. The supernatant was transferred to another EP tube and evaporated to dryness under a nitrogen vacuum. The residue was reconstituted with 100 μL of 50% methanol and centrifuged at 15,000 rpm for 15 min. Then the supernatant was transferred to sample vials for the LC-MS analysis.
(§4) A Vanquish UHPLC™ system (Thermo Fisher Scientific Inc., USA) was used for the analysis. Samples were separated on an Atlantis T3 column (4.6 mm × 150 mm, 3 μm; Waters, USA). The column temperature was 40°C. The mobile phase, at 0.4 mL/min, consisted of water containing 0.1% formic acid (v/v, A) and methanol (B). The quantitative analysis gradient program was as follows: 0-1 min, 0 B; 1–6 min, 0–100% B; 6–12 min, 100% B; 12–12.1 min, 100%-0 B; 12.1–15 min, 0 B. The injection volume was 5 μL.
The mass spectrometer Q Exactive HF-X (Thermo Fisher Scientific Inc., USA) system was connected to the UHPLC system via heated electrospray ionization (HESI) and controlled by Xcalibur 4.2 software (Thermo Fisher) that was used for data collection and analysis. The mass spectrometer was operated in a negative ionization mode. The MS parameters were set as follows: probe heater temperature, 350°C; capillary temperature: 320°C; sheath gas (N2) flow rate: 30 arbs; auxiliary gas (N2) flow rate: 10 arbs; spray voltage: 3.2 kV (negative); S-Lens RF level: 55 V; scan mode: full MS (resolution 12000); scan range: m/z 150–1500. The most abundant ions in the spectra were selected for sensitive quantitation ([M-H]^−of chlorogenic acid, angoroside C, liquiritin, isoliquiritigenin, and IS, [M + COOH]^− of harpagide, swertiamarin, and sweroside). […]

[2] = Stability of analytes in QC plasma samples; assay type: in vitro ADME, mouse; settings: n = 5
Protocol: All solutions were stored at 4°C.
Stability was evaluated as five replicate QC samples at two concentration levels (see Table 5).

[3] = Pharmacokinetic study in normal control (NC) mice after oral administration of SMYAD; assay type: in vivo, mouse; settings: NC mice, plasma, SMYAD intragastric 35 g/kg/d for seven days, mean ± SD, n = 5; for AUC(0-t) / AUC(0-inf) / Cmax / half-life / Tmax: male, C57BL/6J, mouse, po, 35 g/kg/day; for AUC(0-t): read-out: AUC0–t; for AUC(0-inf): read-out: AUC0–∞; for Cmax: read-out: C max; for half-life: read-out: t 1/2 (converted); for Tmax: read-out: t max
Protocol: as §1, §2, §3, §4
The mass spectrometer Q Exactive HF-X (Thermo Fisher Scientific Inc., USA) system was connected to the UHPLC system via heated electrospray ionization (HESI) and controlled by Xcalibur 4.2 software (Thermo Fisher) that was used for data collection and analysis. The mass spectrometer was operated in a negative ionization mode. The MS parameters were set as follows: probe heater temperature, 350°C; capillary temperature: 320°C; sheath gas (N2) flow rate: 30 arbs; auxiliary gas (N2) flow rate: 10 arbs; spray voltage: 3.2 kV (negative); S-Lens RF level: 55 V; scan mode: full MS (resolution 12000); scan range: m/z 150–1500. The most abundant ions in the spectra were selected for sensitive quantitation ([M-H]^−of chlorogenic acid, angoroside C, liquiritin, isoliquiritigenin, and IS, [M + COOH]^− of harpagide, swertiamarin, and sweroside).
The pharmacokinetic parameters, including maximum plasma concentration (Cmax), time corresponding to Cmax (Tmax), terminal elimination half-life (T1/2), area under plasma concentration-time curve (AUC0–t) and area under the plasma concentration-time curve from 0 to infinity time (AUC0–∞), apparent volume of distribution (Vz/F) and clearance (CLz/F), were calculated using the noncompartment model in DAS 2.0 software package (Shanghai, China). GraphPad prism 6.02 (GraphPad Software, USA) was used in the statistical analysis. All values are expressed as mean ± standard error. For the pharmacokinetic parameter values of the NC and AS groups, Student's t-test was employed for data comparisons. P values <0.05 were considered statistically significant.

[4] = high QC level (600 harpagide, 800 chlorogenic acid, 4800 swertiamarin, 1000 sweroside, 200 others ng/ml)
[5] = low QC level ([…] harpagide, 51.2 chlorogenic acid, 307.2 swertiamarin, 64 sweroside, 12.8 others ng/ml)

| SMILES | CLz/F [1] [µL/min/mg] | Vz/F [1] [L/mg] | AUC(0-t) [1] [ng·h/mL] | AUC(0-inf) [1] [ng·h/mL] | Cmax [1] [ng/mL] | half-life [1] [h] | Tmax [1] [h] | Freeze-thaw stability 3 freeze-thaw cycles Accuracy RE [2, 4] [%] | Freeze-thaw stability 3 freeze-thaw cycles Calc. conc. [2, 4] [ng/mL] | Long-term stability −20°C for 30 d Accuracy RE [2, 4] [%] | Long-term stability −20°C for 30 d Calc. conc. [2, 4] [ng/mL] | Postpreparative stability 24 h in the autosampler (4°C) Accuracy RE [2, 4] [%] | Postpreparative stability 24 h in the autosampler (4°C) Calc. conc. [2, 4] [ng/mL] | Short-term stability 24 h in room temperature (20°C) Accuracy RE [2, 4] [%] | Short-term stability 24 h in room temperature (20°C) Calc. conc. [2, 4] [ng/mL] | Freeze-thaw stability 3 freeze-thaw cycles Accuracy RE [2, 5] [%] | Freeze-thaw stability 3 freeze-thaw cycles Calc. conc. [2, 5] [ng/mL] | Long-term stability −20°C for 30 d Accuracy RE [2, 5] [%] | Long-term stability −20°C for 30 d Calc. conc. [2, 5] [ng/mL] | Postpreparative stability 24 h in the autosampler (4°C) Accuracy RE [2, 5] [%] | other results |
| --- | --- | --- | --- | --- | --- | --- | --- | --- | --- | --- | --- | --- | --- | --- | --- | --- | --- | --- | --- | --- | --- |
| C=C[C@H]1[C@H](O[C@@H]2O[C@H](CO)[C@@H](O)[C@H](O)[C@H]2O)OC=C2C(=O)OCC[C@]21O [Swertiamarin, swertiamarin] | 95000 ± 32200 | 55.16 ± 45.04 | 5540 ± 2010 | 7240 ± 3390 | 1340 ± 603 | 5.74 ± 1.9 | 0.9 ± 0.64 | 7.37 | 5153.93 ± 132.15 | 0.75 | 4835.93 ± 153.29 | 3.51 | 4968.64 ± 208.19 | 9.88 | 5274.04 ± 147.92 | −5.86 | 289.21 ± 13.27 | 1.41 | 311.53 ± 14.38 | −4.67 | Postpreparative stability 24 h in the autosampler (4°C) Calc. conc. [2, 5]: 292.85 ± 19.45 ng/mL; Short-term stability 24 h in room temperature (20°C) Accuracy RE [2, 5]: −8.88%; Short-term stability 24 h in room temperature (20°C) Calc. conc. [2, 5]: 279.92 ± 15.61 ng/mL; CLz/F [3]: 97000 ± 44000 µL/min/mg; Vz/F [3]: 20.82 ± 11.26 L/mg; AUC(0-t) [3]: 5350 ± 1180 ng·h/mL; AUC(0-inf) [3]: 5400 ± 1240 ng·h/mL; Cmax [3]: 1430 ± 636 ng/mL; half-life [3]: 4.43 ± 2.06 h; Tmax [3]: 5 ± 4.97 h |
| COc1ccc(CCO[C@@H]2O[C@H](CO[C@@H]3OC[C@H](O)[C@H](O)[C@H]3O)[C@@H](OC(=O)/C=C/c3ccc(O)c(OC)c3)[C@H](O[C@@H]3O[C@@H](C)[C@H](O)[C@@H](O)[C@H]3O)[C@H]2O)cc1O [Angoroside C, angoroside C] | 313200 ± 39800 | 126.00 ± 102.72 | 1840 ± 298 | 1890 ± 226 | 491 ± 239 | 7.33 ± 4.68 | 2.05 ± 1.19 | −1.74 | 196.52 ± 13.15 | −10.51 | 178.97 ± 6.04 | −7.27 | 185.46 ± 9.39 | 1.92 | 203.84 ± 4.39 | 5.68 | 13.53 ± 0.98 | 1.73 | 13.02 ± 1.17 | 1.70 | Postpreparative stability 24 h in the autosampler (4°C) Calc. conc. [2, 5]: 13.02 ± 1.05 ng/mL; Short-term stability 24 h in room temperature (20°C) Accuracy RE [2, 5]: 4.09%; Short-term stability 24 h in room temperature (20°C) Calc. conc. [2, 5]: 13.32 ± 1.09 ng/mL; CLz/F [3]: 495800 ± 401700 µL/min/mg; Vz/F [3]: 148.22 ± 76.23 L/mg; AUC(0-t) [3]: 1730 ± 883 ng·h/mL; AUC(0-inf) [3]: 1870 ± 1050 ng·h/mL; Cmax [3]: 289 ± 124 ng/mL; half-life [3]: 7.4 ± 4.76 h; Tmax [3]: 0.85 ± 0.62 h |
